Source: article PMC7438329 (Scientific Reports, 2020)
Counter-ions that a name gives are not always drawn. Like-named read-outs stand apart in the source and are kept apart here.

Legend:
zebrafish embryos [1] = assay type: in vivo, zebrafish (Danio rerio)
Method: To this end, three zebrafish embryos were treated with a drug (10 ~ 100 μM) in a well of 96-well plate at the onset of 24 hpf and then assayed for touch responses at 27 and 48 hpf, when zebrafish embryos show tactile-induced short-distance forward movement and escape swimming, respectively.
Two chemical libraries from Kyoto University and Nagoya University, composed of total ~ 1,000 bioactive compounds, were used in this study. The 2 µl of chemical compounds (1 ~ 10 mM) dissolved in DMSO were diluted to 200 µl with E3 medium (5 mM NaCl, 0.17 mM KCl, 0.33 mM CaCl2, 0.33 mM MgSO4) and transferred to 96-well plate. Three zebrafish embryos (24 hpf) were transferred into each well of the plate and incubated in a 28.5 °C incubator. At 27 hpf, three embryos with a small amount of drug solution were transferred to a 90-mm dish containing 15 ml of E3 medium and subjected to touch response using forceps under a dissection microscope Leica MZ16. After this assay, embryos with a small amount of E3 solution were transferred back to the drug solution in 96-well plate and incubated in the 28.5 °C incubator. At 48 hpf, embryos were transferred to a 90-mm dish containing 15 ml of E3 medium again and subjected to the touch response.

zebrafish embryos [2] = assay type: in vivo, zebrafish (Danio rerio); remark: listed apart in the source
hGlyR α1 + hGlyRβb = target: T1, hGlyR α1 + hGlyRβb (Homo sapiens, UniProt P23415+P48167); assay: two-electrode voltage-clamp of Xenopus oocytes expressing heteromeric human α1β GlyR; assay type: cell-based
T1 construct: Full-length cDNAs encoding zebrafish GlyR α1 and βb and human GlyR α1 and β subunits were used in this study; expressed in transfected cells; host or cells: Xenopus laevis oocytes injected with cRNA
Method: (§1) To assess the drug sensitivity of GlyRs, we employed electrophysiology using Xenopus oocytes.
(§2) We also investigated whether niflumic acid blocks human GlyRs.
(§3) Full-length cDNAs encoding zebrafish GlyR α1 and βb and human GlyR α1 and β subunits were used in this study. Capped cRNAs for expression in Xenopus laevis oocytes were synthesized from linearized templates using SP6 mMessage mMachine SP6 transcription kit (Thermo Fisher Scientific) as described previously. Oocytes were injected with five femtomoles of cRNA using a Nanoject II (Drummond Scientific). Oocytes were moved to 48-well plates in Barth’s solution (88 mM NaCl, 1 mM KCl, 2.4 mM NaHCO3, 0.33 mM Ca (NO3)2, 0.41 mM CaCl2, 0.82 mM MgSO4, 10 mM HEPES at pH 7.5 with NaOH, supplemented with 50 µg/ml gentamicin and 100 units/ml penicillin/streptomycin) and incubated at 18 °C for 24–48 h prior to recording. Oocyte recording solution (90 mM NaCl, 1 mM KCl, 2 mM CaCl2, 1 mM MgCl2, 10 mM HEPES at pH 7.5 with NaOH) and drug solutions of seven different concentrations were flew into the oocyte chamber using a BPS-8 solution switcher (ALA Scientific). Borosilicate electrodes had resistances of ~ 2.0 MΩ when filed with 3 M KCl. […] Signals were low-pass filtered at 10 Hz, and sampled at 100 Hz. […] Statistical significance was assessed using the pair-wise analysis of variance.

zGlyR α1 + zGlyRβb = zGlyR α1 + zGlyRβb (Danio rerio, UniProt O93430+Q6DC22); assay: two-electrode voltage-clamp of Xenopus oocytes expressing heteromeric zebrafish α1βb GlyR; assay type: cell-based
Method: as §1, §3

hGlyR α1 = target: T2, hGlyR α1 (Homo sapiens, UniProt P23415); assay: two-electrode voltage-clamp of Xenopus oocytes expressing homomeric human α1 GlyR; assay type: cell-based
T2 construct: Full-length cDNAs encoding zebrafish GlyR α1 and βb and human GlyR α1 and β subunits were used in this study; expressed in transfected cells; host or cells: Xenopus laevis oocytes injected with cRNA
T2 sequence (P23415 29-457): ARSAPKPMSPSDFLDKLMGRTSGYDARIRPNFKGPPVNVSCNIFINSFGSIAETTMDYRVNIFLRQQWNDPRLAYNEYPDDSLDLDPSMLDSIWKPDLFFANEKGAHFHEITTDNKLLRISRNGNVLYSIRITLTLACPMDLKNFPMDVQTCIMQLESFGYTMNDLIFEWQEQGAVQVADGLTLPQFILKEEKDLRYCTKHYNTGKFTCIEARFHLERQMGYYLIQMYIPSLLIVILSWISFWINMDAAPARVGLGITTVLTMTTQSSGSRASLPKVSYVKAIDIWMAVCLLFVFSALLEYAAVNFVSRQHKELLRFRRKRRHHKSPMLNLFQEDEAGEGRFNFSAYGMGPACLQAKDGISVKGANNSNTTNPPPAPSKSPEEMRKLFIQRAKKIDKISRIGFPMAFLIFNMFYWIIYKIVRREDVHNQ
Method: as §1, §2, §3

zGlyR α1 = target: T3, zGlyR α1 (Danio rerio, UniProt O93430); assay: two-electrode voltage-clamp of Xenopus oocytes expressing homomeric zebrafish α1 GlyR; assay type: cell-based
T3 construct: Full-length cDNAs encoding zebrafish GlyR α1 and βb and human GlyR α1 and β subunits were used in this study; expressed in transfected cells; host or cells: Xenopus laevis oocytes injected with cRNA
T3 sequence (O93430 25-444): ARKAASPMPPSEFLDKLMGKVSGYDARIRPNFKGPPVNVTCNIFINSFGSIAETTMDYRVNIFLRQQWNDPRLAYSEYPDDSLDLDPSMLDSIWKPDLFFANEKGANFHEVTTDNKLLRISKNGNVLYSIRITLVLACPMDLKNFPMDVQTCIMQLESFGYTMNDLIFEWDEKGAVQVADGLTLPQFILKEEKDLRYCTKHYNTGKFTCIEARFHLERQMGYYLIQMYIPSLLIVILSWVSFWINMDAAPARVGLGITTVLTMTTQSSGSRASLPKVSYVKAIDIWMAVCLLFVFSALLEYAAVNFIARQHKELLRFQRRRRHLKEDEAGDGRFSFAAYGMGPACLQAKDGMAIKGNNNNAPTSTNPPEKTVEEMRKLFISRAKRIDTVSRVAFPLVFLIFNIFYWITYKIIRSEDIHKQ
Method: as §1, §3

zebrafish GlyRs = target: T4, zebrafish GlyRs (Danio rerio, UniProt O93430); assay: cell-based; assay type: cell-based; conditions: rounded value in discussion; read-out: IC50 values of GlyRs expressed in Xenopus oocytes
T4 sequence (O93430 25-444): T3 sequence (O93430 25-444)
Method: as §3

[3] = statement in discussion, no reference given; cited from earlier work
zebrafish embryos [4] = assay: video recording of zebrafish touch response at 48 hpf in the presence of drug; assay type: in vivo, zebrafish (Danio rerio); conditions: for tactile response of zebrafish embryos at 48 hpf: bath application 30 min: 70 μM strychnine, 5 mM picrotoxin, 200 μM nifedipine, 500 μM niflumic acid; for drug concentration efficient for inducing abnormal touch response: zebrafish embryos 48 hpf, bath application
Description: Tactile-evoked zebrafish movements in the presence of control 1% DMSO or drug were video recorded at 48 hpf using a dissection microscope. Touch responses elicited by tactile stimulation delivered to the tail with forceps were captured with a high-speed CCD camera at 200 frames per second (HAS-220, Ditect) as described previously.

homomeric α GlyRs = conditions: mammals; cited from earlier work
heteromeric αβ GlyRs = conditions: mammals; cited from earlier work
[5] = drug 10 ~ 100 μM, 1% DMSO, from 24 hpf, touch responses at 27 and 48 hpf
[6] = purchased drugs, several different concentrations
[7] = with 200 μM glycine, mean ± SEM, 10 oocytes
[8] = read-out: IC50 of inhibition of glycine current, with 200 μM glycine, mean ± SEM, 10 oocytes

T1 sequence (P48167 23-497, one chain of several): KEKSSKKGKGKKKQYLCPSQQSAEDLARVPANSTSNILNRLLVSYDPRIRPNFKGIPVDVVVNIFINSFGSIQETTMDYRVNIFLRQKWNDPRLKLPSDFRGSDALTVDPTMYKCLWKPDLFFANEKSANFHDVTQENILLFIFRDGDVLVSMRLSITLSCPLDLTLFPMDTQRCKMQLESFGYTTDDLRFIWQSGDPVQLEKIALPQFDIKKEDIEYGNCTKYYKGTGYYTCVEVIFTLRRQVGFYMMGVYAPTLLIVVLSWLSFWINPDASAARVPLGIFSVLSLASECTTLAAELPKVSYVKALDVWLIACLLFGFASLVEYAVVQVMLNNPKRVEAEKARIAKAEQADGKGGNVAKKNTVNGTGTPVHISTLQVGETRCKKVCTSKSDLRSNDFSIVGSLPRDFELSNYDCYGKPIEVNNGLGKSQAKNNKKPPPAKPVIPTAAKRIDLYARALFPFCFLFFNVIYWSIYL
Chain of zGlyR α1 + zGlyRβb (Q6DC22 entry or part of it, one chain of several): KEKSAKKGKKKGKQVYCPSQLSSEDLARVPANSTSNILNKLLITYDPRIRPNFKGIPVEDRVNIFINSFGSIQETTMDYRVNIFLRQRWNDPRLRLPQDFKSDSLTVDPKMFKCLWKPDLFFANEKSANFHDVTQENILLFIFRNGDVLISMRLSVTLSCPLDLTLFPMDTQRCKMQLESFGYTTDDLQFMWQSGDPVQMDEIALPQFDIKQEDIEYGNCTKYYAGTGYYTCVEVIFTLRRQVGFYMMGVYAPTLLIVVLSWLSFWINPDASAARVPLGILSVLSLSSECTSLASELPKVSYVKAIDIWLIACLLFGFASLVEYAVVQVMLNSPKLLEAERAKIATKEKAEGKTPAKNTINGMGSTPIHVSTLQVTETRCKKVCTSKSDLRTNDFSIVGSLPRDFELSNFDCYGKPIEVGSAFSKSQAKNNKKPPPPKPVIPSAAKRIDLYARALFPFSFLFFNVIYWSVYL

CCCCCC[C@H]1C(=O)O[C@H](C)[C@H](NC(=O)c2cccc(NC=O)c2O)C(=O)O[C@@H](C)[C@@H]1OC(=O)CC(C)C [Antimycin A]
Response 1st screening (zebrafish embryos [1]; [5]): Weird contraction
Response 2nd screening (zebrafish embryos [2]; [6]): Normal

O=c1oc2ccccc2c(O)c1Cc1c(O)c2ccccc2oc1=O [Dicumarol]
Response 1st screening (zebrafish embryos [1]; [5]): Weird contraction
Response 2nd screening (zebrafish embryos [2]; [6]): Normal

Cc1c(-c2ccccc2)oc2c(C(=O)OCCN3CCCCC3)cccc2c1=O [Flavoxate hydrochloride]
Response 1st screening (zebrafish embryos [1]; [5]): Weird contraction
Response 2nd screening (zebrafish embryos [2]; [6]): Normal

CC(N)CCCC(C)(C)O (stereo not shown) [Heptaminol hydrochloride]
Response 1st screening (zebrafish embryos [1]; [5]): Body shrinkage
Response 2nd screening (zebrafish embryos [2]; [6]): Normal

Cc1cccc(Nc2ccccc2C(=O)O)c1C [Mefenamic acid]
Response 1st screening (zebrafish embryos [1]; [5]): Body shrinkage
Response 2nd screening (zebrafish embryos [2]; [6]): Normal

COC(=O)C1=C(C)NC(C)=C(C(=O)OC)C1c1ccccc1[N+](=O)[O-] [Nifedipine]
IC50 (hGlyR α1 + hGlyRβb): 130 ± 27 µM
Hill coeff of drug-mediated inhibition (hGlyR α1 + hGlyRβb; [7]): 0.9 ± 0.2
Response 1st screening (zebrafish embryos [1]; zebrafish, in vivo): Body shrinkage
Hill coeff of drug-mediated inhibition (zGlyR α1 + zGlyRβb): 0.4 ± 0.0
IC50 (zGlyR α1 + zGlyRβb): 162 ± 24 µM
IC50 (hGlyR α1): 171 ± 30 µM
Hill coeff of drug-mediated inhibition (hGlyR α1; [7]): 1.1 ± 0.2
IC50 (zGlyR α1): 239 ± 38 µM
Hill coeff of drug-mediated inhibition (zGlyR α1; [7]): 0.5 ± 0.1
IC50 (zebrafish GlyRs): 200 µM
Response 2nd screening (zebrafish embryos [2]; zebrafish, in vivo): Body shrinkage

O=C(O)c1cccnc1Nc1cccc(C(F)(F)F)c1 [Niflumic acid]
solubility in water [3]: insoluble to water
IC50 (hGlyR α1 + hGlyRβb): 930 ± 111 µM
Hill coeff of drug-mediated inhibition (hGlyR α1 + hGlyRβb; [7]): 1.1 ± 0.1
Response 1st screening (zebrafish embryos [1]; [5]): Weird contraction
IC50 (zGlyR α1 + zGlyRβb): 426 µM
Hill coeff of drug-mediated inhibition (zGlyR α1 + zGlyRβb; [7]): 0.9 ± 0.1
tactile response of zebrafish embryos at 48 hpf (zebrafish embryos [4]): touch-evoked shrinkage of the body
drug concentration efficient for inducing abnormal touch response (zebrafish embryos [4]): 500 µM
IC50 (hGlyR α1): 1070 µM
Hill coeff of drug-mediated inhibition (hGlyR α1; [7]): 1.1 ± 0.2
IC50 (zGlyR α1): 801 ± 91 µM
Hill coeff of drug-mediated inhibition (zGlyR α1; [7]): 0.5 ± 0.1
IC50 (zebrafish GlyRs): 400 µM
Response 2nd screening (zebrafish embryos [2]; [6]): Body shrinkage

Cl.Cl.c1ccc2c3c([nH]c2c1)C1C2CCC(C4CCCNC42)N1CC3 (stereo not shown) [Nitrarine dihydrochloride]
Response 1st screening (zebrafish embryos [1]; [5]): Weird contraction
Response 2nd screening (zebrafish embryos [2]; [6]): Normal

COc1ccc(Cc2nccc3cc(OC)c(OC)cc23)cc1OC [Papaverine hydrochloride]
Response 1st screening (zebrafish embryos [1]; [5]): Weird contraction
Response 2nd screening (zebrafish embryos [2]; [6]): Normal

O=C1C[C@@H]2OCC=C3CN4CC[C@]56c7ccccc7N1[C@H]5[C@H]2[C@H]3C[C@H]46 [Strychnine]
Hill coeff of drug-mediated inhibition (hGlyR α1 + hGlyRβb): 0.8 ± 0.1
IC50 (hGlyR α1 + hGlyRβb): 0.092 ± 0.019 µM
Response 1st screening (zebrafish embryos [1]; [5]): Body shrinkage
tactile response of zebrafish embryos at 48 hpf (zebrafish embryos [4]): bilateral trunk contractions resulting in the shrinkage of the body
Hill coeff of drug-mediated inhibition (hGlyR α1): 1.0 ± 0.1
IC50 (hGlyR α1): 0.072 ± 0.012 µM
Hill coeff of drug-mediated inhibition (zGlyR α1): 0.7 ± 0.2
Response 2nd screening (zebrafish embryos [2]; [6]): Body shrinkage

NCC(=O)O [glycine, Glycine]
Hill coefficient of glycine-dependent gating (hGlyR α1 + hGlyRβb): 3.2 ± 0.2
Hill coefficient of glycine-dependent gating (zGlyR α1 + zGlyRβb): 2.5 ± 0.2
EC50 (zGlyR α1 + zGlyRβb; read-out: EC50 of glycine-dependent gating): 163 µM
Hill coefficient of glycine-dependent gating (hGlyR α1): 2.9 ± 0.1
Hill coefficient of glycine-dependent gating (zGlyR α1; mean ± SEM, 10 oocytes): 2.7 ± 0.1
EC50 (zGlyR α1; mean ± SEM, 10 oocytes, read-out: EC50 of glycine-dependent gating): 112 ± 10 µM

Picrotoxin
IC50 (hGlyR α1 + hGlyRβb; [8]): 94 µM
Hill coeff of drug-mediated inhibition (hGlyR α1 + hGlyRβb; [7]): **0.5 ± 0.1
Response 1st screening (zebrafish embryos [1]; [5]): failed to identify it
concentration of picrotoxin that blocks homomeric α GlyRs (homomeric α GlyRs): ~ 10 μM
Hill coeff of drug-mediated inhibition (zGlyR α1 + zGlyRβb): 0.9 ± 0.0
IC50 (zGlyR α1 + zGlyRβb; read-out: IC50 of inhibition of glycine current): 6.4 ± 0.3 µM
tactile response of zebrafish embryos at 48 hpf (zebrafish embryos [4]): shrinkage of the body
drug concentration efficient for inducing abnormal touch response (zebrafish embryos [4]): 5000 µM
IC50 (hGlyR α1; [8]): 7.2 ± 0.9 µM
Hill coeff of drug-mediated inhibition (hGlyR α1; [7]): 0.9 ± 0.1
IC50 (zGlyR α1; [8]): 6.1 ± 0.3 µM
Hill coeff of drug-mediated inhibition (zGlyR α1; [7]): 1.2 ± 0.1
IC50 (zebrafish GlyRs): 6 µM
picrotoxin necessary to block heteromeric αβ GlyRs compared with homomeric α GlyRs (heteromeric αβ GlyRs): ten folds more
